From patent US20150065693A1, “COMPOSITION FOR PROPHYLAXIS OR TREATMENT OF VASCULAR OR CARDIAC VALVULAR CALCIFICATION COMPRISING DIPEPTIDYL PEPTIDASE-4 INHIBITOR” (THE ASAN FOUNDATION, priority 2013, published 2015)

How the values were obtained:
CD26/DPP-4 mRNA = CD26/DPP-4 mRNA expression by RT-PCR in vascular smooth muscle cells; assay type: cell-based, mice; conditions: extent in proportion to the concentration of DETA-NO, FIG. 4
[1] = system: calcification of the cardioaorta; assay: In vivo calcium deposition in the cardioaorta by Osteosense fluorescence; conditions: control and eNOS KO transgenic mice, FIG. 11
Procedure: To determine whether the calcification of the cardioaorta decreased by the CD26 inhibitor, a CD26 inhibitor drug, DPPIV inhibitor sitagliptin, was administered to the control and the eNOS KO transgenic mice. Thereafter, the intensity of fluorescence was monitored by injecting Osteosense into the mice to check the in vivo calcium deposition. In FIG. 11, the red intensity of fluorescence represents a level of calcification.

[2] = system: vascular smooth muscle cells from the eNOS KO mice; assay: Osteogenic differentiation of vascular smooth muscle cells (ALP, AR, VK staining); assay type: cell-based; conditions: FIG. 10B
Procedure: The aorta extracted with the heart was washed with a serum-free M199 medium (Cellgro), and cut into small pieces. Thereafter, 20% fetal calf serum, and 3 mg/mL collagenase (Sigma) were added to the M199 medium, and […] for 3 hours in a 37° C. water bath. Then, it was confirmed that the separated cells were vascular smooth muscle cells using an α-SM actin monoclonal antibody (Sigma). The separated vascular smooth muscle cells were divided at a 30% concentration, and the medium used was replaced with osteogenic medium (Osteogenic Basal Medium, Osteogenic SingleQuots, Lonza, USA) after 24 hours. The medium was replaced every 3 days, and the cell culture was performed for 28 days. The concentration of sCD26/DPP-4 was measured upon medium replacement.
For the wild-type mice and eNOS KO mice, it was determined whether the promotion of ossification of vascular smooth muscle cells was induced by CD26 using an ALP staining method as a staining method used at the initial calcification stage, an AR staining method as a staining method used at the middle calcification stage, and a VK staining method as a staining method used at the late calcification stage.
Also, the vascular smooth muscle cells from the eNOS KO mice were treated with CD26 and a CD26 inhibitor, diprotin A, respectively.

For NCCN(CCN)/[N+]([O-])=N/O [DETA-NO], the “expression of the CD26/DPP-4 mRNA” value (CD26/DPP-4 mRNA) was “decreased”.

With N[C@@H](CC(=O)N1CCn2c(nnc2C(F)(F)F)C1)Cc1cc(F)c(F)cc1F [sitagliptin] the “calcification in the cardioaorta” value [1] was “slowly proceeded”.

For diprotin A, the osteogenic differentiation [2] was “inhibited”.
